PubChem BioAssay (NCI)
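48-hour exposure; five concentrations; linearly interpolated endpoints. Here, GI50 denotes the concentration required for 50% inhibition of growth. TGI marks complete inhibition of growth.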

Legend:
Experiment in all cases: NCI anticancer screen, dose series, 48 h
OVCAR-3 ovarian = tested on: OVCAR-3 ovarian
NCI-H226 lung = tested on: NCI-H226 lung
SR leukemia = tested on: SR leukemia
OVCAR-8 ovarian = tested on: OVCAR-8 ovarian
SNB-19 CNS = tested on: SNB-19 CNS
MALME-3M melanoma = tested on: MALME-3M melanoma
OVCAR-5 ovarian = tested on: OVCAR-5 ovarian
UO-31 renal = tested on: UO-31 renal
HCT-116 colon = tested on: HCT-116 colon
M14 melanoma = tested on: M14 melanoma

| SMILES | TGI (OVCAR-3 ovarian) [µM] | TGI (NCI-H226 lung) [µM] | TGI (SR leukemia) [µM] | TGI (OVCAR-8 ovarian) [µM] | TGI (SNB-19 CNS) [µM] | TGI (MALME-3M melanoma) [µM] | TGI (OVCAR-5 ovarian) [µM] | TGI (UO-31 renal) [µM] | TGI (HCT-116 colon) [µM] | TGI (M14 melanoma) [µM] | GI50 (OVCAR-3 ovarian) [µM] | GI50 (NCI-H226 lung) [µM] | GI50 (SR leukemia) [µM] | GI50 (OVCAR-8 ovarian) [µM] | GI50 (SNB-19 CNS) [µM] | GI50 (MALME-3M melanoma) [µM] | GI50 (OVCAR-5 ovarian) [µM] | GI50 (UO-31 renal) [µM] | GI50 (HCT-116 colon) [µM] | GI50 (M14 melanoma) [µM] |
| --- | --- | --- | --- | --- | --- | --- | --- | --- | --- | --- | --- | --- | --- | --- | --- | --- | --- | --- | --- | --- |
| O=[N+]([O-])c1cccnc1S(=O)(=O)c1ccccc1 | 3.84 | 34.7 | > 100 | 26.8 | 34.1 | 23.8 | 29.4 | 14 | 21.6 | 22.5 | – | – | – | – | – | – | – | – | – | – |
| O=C1Nc2ccc(-c3cccnc3)cc2/C1=C/c1cc(Br)c(O)c(Br)c1 | 12.8 | > 25 | > 25 | > 25 | > 25 | 23.9 | > 25 | > 18.3 | > 25 | > 21.9 | 5.05 | 8.43 | 8.24 | 9.89 | 9.11 | 3.96 | 15.6 | 6.54 | 6.54 | 4.45 |
| CN(C)CCNC(=O)Nc1ccc(N(C)c2ccnc(Nc3ccc(CS(C)(=O)=O)cc3)n2)cc1 | > 25 | > 25 | > 25 | > 25 | > 25 | > 25 | > 25 | > 25 | > 25 | > 25 | > 25 | > 23.7 | 14.8 | > 25 | > 25 | > 25 | > 25 | > 25 | > 25 | > 25 |
| COc1ccc(N(CC(=O)O)N=O)cc1 | > 100 | > 100 | > 100 | > 100 | > 100 | > 100 | > 100 | > 100 | > 100 | > 100 | – | – | – | – | – | – | – | – | – | – |
| C/C(=C/CCC(C)[C@@H]1CC[C@]2(C)C3=C(CC[C@@]12C)[C@@]1(C)CCC(=O)C(C)(C)[C@@H]1CC3)C(=O)O (stereo not given in full) | 2.79 | 4.56 | 2.93 | 3.2 | 2.68 | 3.5 | 3.29 | 2.44 | 2.3 | 2.64 | 1.41 | 1.46 | 1.14 | 1.42 | 1.17 | 1.66 | 1.68 | 1.08 | 0.858 | 1.1 |
| OCC1OC(OC2(CO)OC(CO)C(O)C2O)C(O)C(O)C1O (stereo not given) | > 100 | > 100 | > 100 | > 100 | > 100 | > 100 | > 100 | > 100 | > 100 | > 100 | > 100 | > 100 | > 100 | > 100 | > 100 | > 100 | > 100 | > 100 | > 100 | > 100 |
| CN(C)CCCOc1ccc(NC2=C(Cl)C(=O)C(Nc3ccc(OCCCN(C)C)cc3)=C(Cl)C2=O)cc1 | 0.353 | 3.83 | 3.25 | 1.04 | 3.39 | 0.935 | 3.18 | 2.44 | 0.368 | 2.9 | 0.187 | 1.92 | 0.312 | 0.446 | 1.73 | 0.336 | 1.69 | 1.1 | 0.183 | 1.45 |
| O=C1C2C(C(=O)N1Cc1ccccc1)N(Cc1ccccc1)C(=O)N2Cc1ccccc1 (stereo not given) | > 100 | > 100 | > 100 | > 100 | > 100 | > 100 | > 100 | > 100 | > 100 | > 100 | – | – | – | – | – | – | – | – | – | – |
| OCc1ccc(-c2ccc(-c3ccc(CO)o3)o2)o1 | > 100 | 2.59 | > 100 | > 100 | > 100 | 69.6 | 3 | > 100 | > 100 | > 100 | > 84.6 | 0.576 | > 100 | > 100 | > 90.8 | 8.22 | 0.641 | > 100 | > 88.9 | > 100 |
| CCOC(=O)[C@@H](C)C[C@H](Cc1ccccc1)NC(=O)c1csc([C@@H](C[C@H](C(C)C)N(C)C(=O)CNC(=O)[C@H]2CCCCN2C)OC(C)=O)n1 | 1.33 | > 14.3 | > 14.3 | > 14.3 | > 14.3 | > 14.3 | > 14.3 | > 14.3 | > 14.3 | 7.31 | 0.334 | > 5.67 | 0.145 | 2.84 | 0.758 | 0.601 | 3.58 | 5.07 | 0.529 | 0.804 |
| CS(=O)(=O)OCCN1CCN(C(=O)c2ccc(Cl)c3c(Nc4ccc(S(=O)(=O)N=C(N)N)cc4)c4ccccc4nc23)CC1 | > 100 | > 100 | > 100 | > 100 | > 100 | > 100 | > 100 | > 100 | > 100 | > 100 | – | – | – | – | – | – | – | – | – | – |
